The values that follow are results of earlier work, collected in patent US11123368B2, “Immunosuppressive blood cells and methods of producing the same” (Universitatsklinikum Heidelberg, priority 2008, dated 2021).

The data set concerns multiple sclerosis. The following applies: clinical trials.

Regarding glatiramer acetate, the “relapse rate of MS” value is on record as “significantly reduced”. Also, the progression of disability result (MS) is listed as “slowed progression of disability”.
